Patent US5188955A, “Method of preserving arylacylamidase in aqueous solution” (GDS Technology, Inc., priority 1992, dated 1993)
“Also recorded” adds a separate entry of the source. Read-outs that look alike come from different tables or passages of the source.

Tests used:
Format in all cases: biochemical
arylacylamidase = assay: General findings on effect of stabilizers on arylacylamidase
[1] = system: arylacylamidase E.C. 3.5.1.13; assay: Stability of aqueous arylacylamidase solution at 37° C. with or without o-cresol (Example 1); settings: for Remaining enzyme activity: 37° C.
Experimental: (§1) Arylacylamidase enzyme was dissolved in water containing 50 mM borate buffer at various pH's at widely different concentrations of between 1 and 1500 U/L in the presence of between 1 and 12 mM o-cresol. The same solution of enzyme in buffer was prepared without o-cresol. Both sets of solutions were maintained at 37° C. for a period of two weeks. The enzyme activity was measured at the beginning of the period, as well as at certain times during the two week period. The enzyme activity was determined by a method which uses 50 mM Tris.HCl, pH 8.5, and 1 mM paranitroacetanilide as the enzyme substrate. In the presence of arylacylamidase, the p.nitroacetanilide is hydrolyzed to p-nitroaniline which absorbs at 405 nm. The kinetic assay was performed at 30° C. and 405 nm. One unit of enzyme activity is defined as 1 μ mole of p.nitroaniline formed using p-nitroacetanilide as a substrate at 30° C.

[2] = system: arylacylamidase E.C. 3.5.1.13; assay: Stability of arylacylamidase dried on paper strips with or without o-cresol (Example 2); settings: 37° C., two weeks
Experimental: as §1
Two arylacylamidase aqueous solutions of 100 U/L were prepared in water containing 50 mM borate buffer, pH 8.0, one in the presence of 10 mM o-cresol and one in the absence of o-cresol. Whatman 54 and Whatman 3MM paper strips (2"×12") were impregnated with these solutions and dried. The dried paper strips were stored at 37° C. for two weeks. […] The enzyme activity was measured using the assay described in Example 1.

[3] = system: arylacylamidase E.C. 3.5.1.13; settings: 10 mM Tris-HCl pH 7.0
Experimental: as §1
An aqueous solutiOn of arylacylamidase, from about 100-200 U/mL, in 10 mM Tris-HCl buffer, which was maintained at pH 7.0, was lyophilized in the presence of various amounts of sodium benzoate and in the absence of sodium benzoate. After lyophilization, the enzyme samples were dissolved in deionized water to make an aqueous enzyme solution of 100 U/mL of water, and assayed for enzyme activity using the assay described in Example 1.

[4] = system: arylacylamidase E.C. 3.5.1.13; settings: Arylacylamidase 21.6 U/mL with 1 mg/mL sodium benzoate, 10 mM Tris-HCl pH 7.0
Experimental: as §1
The arylacylamidase was dissolved in an aqueous buffer, such as in 10 mM Tris-HCl, pH 7.0, in the presence of 1 mg/ml sodium benzoate and in the absence of sodium benzoate.
The samples were maintained at 4° C., room temperature, and 37° C. The residual activity was determined using the enzyme assay described in Example 1.

[5] = system: arylacylamidase E.C. 3.5.1.13; settings: 37° C., two weeks

`O=C(O)c1ccccc1` [benzoic acid] was tested, and the “use as substrate / inhibition of arylacylamidase activity” value (arylacylamidase) was “neither compound is used by the enzyme as a substrate nor causes inhibition of the activity of arylacylamidase”.
`Cc1ccccc1O` [o-cresol] was tested, and the Remaining enzyme activity ([1]; pH 8.0, 2.8 mM o-cresol, 0 HRS) was 13.6 U/ML, the Remaining enzyme activity ([1]; pH 8.0, 2.8 mM o-cresol, 3 DAYS) was 13.6 U/ML and the Remaining enzyme activity ([1]; pH 8.0, 2.8 mM o-cresol, 5 HRS) was 13.5 U/ML. It also gave a Remaining enzyme activity ([1]; pH 8.0, 2.8 mM o-cresol, 7 DAYS) of 12.3 U/ML, a Remaining enzyme activity ([1]; pH 8.0, 2.8 mM o-cresol, 14 DAYS) of 11.8 U/ML and a Remaining enzyme activity ([1]; pH 8.0, 4.2 mM o-cresol, 0 HRS) of 6.25 U/ML. It also gave a Remaining enzyme activity ([1]; pH 8.0, 4.2 mM o-cresol, 3 DAYS) of 6.20 U/ML, a Remaining enzyme activity ([1]; pH 8.0, 4.2 mM o-cresol, 5 HRS) of 6.16 U/ML and a Remaining enzyme activity ([1]; pH 8.0, 4.2 mM o-cresol, 7 DAYS) of 5.66 U/ML. The Remaining enzyme activity ([1]; pH 8.0, 4.2 mM o-cresol, 14 DAYS) was 5.36 U/ML, the “activity of aqueous solution of arylacylamidase maintained” value ([1]; pH 8.0, 14 days at 37° C., 2.8 mM o-cresol) was “over 80%” and the Remaining enzyme activity ([1]; pH 9.0, 2.2 mM o-cresol, 0 HRS) was 13.6 U/ML. The Remaining enzyme activity ([1]; pH 9.0, 2.2 mM o-cresol, 3 DAYS) was 11.2 U/ML, the Remaining enzyme activity ([1]; pH 9.0, 2.2 mM o-cresol, 5 HRS) was 13.7 U/ML and the Remaining enzyme activity ([1]; pH 9.0, 2.2 mM o-cresol, 7 DAYS) was 9.26 U/ML. It also gave a Remaining enzyme activity ([1]; pH 9.0, 2.2 mM o-cresol, 14 DAYS) of 5.44 U/ML, a Remaining enzyme activity ([1]; pH 9.0, 3.75 mM o-cresol, 0 HRS) of 6.15 U/ML and a Remaining enzyme activity ([1]; pH 9.0, 3.75 mM o-cresol, 3 DAYS) of 5.03 U/ML. It also gave a Remaining enzyme activity ([1]; pH 9.0, 3.75 mM o-cresol, 5 HRS) of 6.20 U/ML, a Remaining enzyme activity ([1]; pH 9.0, 3.75 mM o-cresol, 7 DAYS) of 4.16 U/ML and a Remaining enzyme activity ([1]; pH 9.0, 3.75 mM o-cresol, 14 DAYS) of 2.36 U/ML. For the same compound, the “Residual Activity (Recovery)” value ([2]; Strips of Whatman 3 MM, 10 mM o-cresol) was 40%, the “Residual Activity (Recovery)” value ([2]; Strips of Whatman 54, 10 mM o-cresol) was 70% and the “use as substrate / inhibition of arylacylamidase activity” value (arylacylamidase) was “neither compound is used by the enzyme as a substrate nor causes inhibition of the activity of arylacylamidase”. For the same compound, the “effect on stability of the enzyme” value (arylacylamidase; 10-100 mg/ml of ortho-cresol) was “enhances the stability of the enzyme”, the “effect on the enzyme” value (arylacylamidase; higher concentrations of ortho-cresol, on the order of about 1%) was “inactivate the enzyme and make it unstable” and the “effect on stability of arylacylamidase” value (arylacylamidase; o-cresol concentrations above about 0.5%) was “specifically destabilizes arylacylamidase; also recorded: act to destabilize the arylacylamidase enzyme”.
In the case of `O=C(O)c1ccccc1` [sodium benzoate], the “% Recovery After Lyophilization” value ([3]; 1 mM sodium benzoate) is reported as 75%, the “% Recovery After Lyophilization” value ([3]; 5 mM sodium benzoate) is reported as 95% and the “% Recovery After Lyophilization” value ([3]; 10 mM sodium benzoate) is reported as 104%. For the same compound, the “Remaining Activity at 4° C. (8 days)” value [4] was 80%, the “Remaining Activity at 37° C. (1 day)” value [4] was 85% and the “Remaining Activity at 37° C. (4 days)” value [4] was 30%. For the same compound, the “Remaining Activity at Room Temp (8 days)” value [4] was 71%, the “Residual Activity (Recovery)” value ([5]; Strips of Whatman 3 MM, 10 mM sodium benzoate) was 70% and the “Residual Activity (Recovery)” value ([5]; Strips of Whatman 54, 10 mM sodium benzoate) was 85%.
